Each structure is given as a SMILES string. Bounds are passed on as bounds.

Data set [1] has as its system C-terminal domain (CTD) of RNA polymerase II, serine 2 and serine 5. Put plainly: Immunoblotting: phosphorylation of the C-terminal domain of RNA polymerase II. It is filed as cell-based. As for the experimental part: (§1) Cell were detached with rubber policeman and washed three times with ice-cold PBS and lysed in buffer (50 mM Tris, pH 7.4, 250 mM NaCl, 5 mM EDTA, 50 mM NaF, 1 mM Na3VO4, 1% Nonidet P40) containing mixture of protease and phosphatase inhibitors (Sigma-Aldrich St Louis, Mo., USA). 20 μg of total proteins were separated by SDS-polyacrylamide gel electrophoresis (SDS-PAGE) on 8% or 10% gels and transferred onto nitrocellulose membranes. Membranes were blocked in 5% milk and 0.1% Tween 20 in PBS and probed overnight with specific monoclonal antibodies or rabbit polyclonal sera. Primary antibodies specific for RNA polymerase II (all from Santa Cruz Biotechnology, California, USA) included: (i) N-20 used at 1 μg/ml, (ii) H14, specific for form phosphorylated at phosphoserine 5, used at 6 μg/ml and (iii) H5, specific for form phosphorylated at phosphoserine 2 used at 4 μg/ml. Additional primary mAb used in immunblots included (iv) anti-p53 (DO-1, in house) used at 1 μg/ml, (v) anti-p21^WAF1 (118, in house), used at 1 μg/ml), (vi) anti-actin (A-2066, Sigma-Aldrich St Louis, Mo., USA) used at 1 μg/ml, (vii) anti-T-antigen (419, in house), used at 1 μg/ml. All primary antibodies were diluted in PBS containing 5% powdered milk; 0.1% Tween 20. Peroxidase conjugated rabbit anti-mouse immunoglobulin or porcine anti-rabbit immunoglobulin antisera (DAKO, Glostrup, Denmark) were used as the secondary antibodies and visualised with ECL reagents (Amersham-Pharmacia, Little Chalfont, UK).
Modulation of expression from the HIV promoter by CDKI treatment may be mediated by transcriptional regulation. At the C-terminus of the largest subunit of RNA Pol II is an important regulatory domain referred to as CTD (C-terminal domain). We therefore investigated the effect of CDKIs on CTD serine 2 and serine 5 phosphorylation. […] Although the functions of CDKs and RNA polymerase II were suppressed, the expression from incorporated viral promoters was enhanced.
Cell were detached with rubber policeman and washed three times with ice-cold PBS and lysed in buffer (50 mM Tris, pH 7.4, 250 mM NaCl, 5 mM EDTA, 50 mM NaF, 1 mM Na3VO4, 1% Nonidet P40) containing mixture of protease and phosphatase inhibitors (Sigma-Aldrich St Louis, Mo., USA). 20 μg of total proteins were separated by SDS-polyacrylamide gel electrophoresis (SDS-PAGE) on 8% or 10% gels and transferred onto nitrocellulose membranes. Membranes were blocked in 5% milk and 0.1% Tween 20 in PBS and probed overnight with specific monoclonal antibodies or rabbit polyclonal sera. […]

The subject of data set [2] is pRb (Ser780, Ser807, Thr821) in MCF7 cells. Put plainly: Immunoblot analysis of pRb phosphorylation in MCF7 cells. It is filed as cell-based, human. Particulars: MCF7 cells treated for 24 h, immunoblot (FIG. 2). The protocol: as §1, with “Peroxidase conjugated rabbit anti-mouse immunoglobulin or porcine anti-rabbit immunoglobulin antisera (DAKO, Glostrup, Denmark) were used as the secondary antibodies and visualised with ECL reagents (Amersham-Pharmacia, Little Chalfont, UK).” left out

Data set [3] concerns p53-responsive reporter pRGCΔfoslacZ in murine fibroblasts T22lacZ. Put plainly: p53-dependent transcriptional activity, β-galactosidase reporter in T22lacZ cells. It is filed as cell-based. The conditions noted are these: 5 μM.
The test system of another data set is VV. It is filed as cell-based, Vaccinia virus strain WR. Particulars: Vaccinia virus on HFFF.
A short description of data set [4]: In vitro cytotoxic activity (Calcein AM, 72 hours), BJ. Particulars: human, BJ normal fibroblasts.
The subject of another data set is breast carcinoma MCF7. Put plainly: In vitro cytotoxic activity (Calcein AM, 72 hours), MCF7. Particulars: Homo sapiens, MCF7, 72 h, read-out: Cytotoxicity IC50 MCF7.
Data set [5] deals with human erythroleukaemia K562. Put plainly: In vitro cytotoxic activity (Calcein AM, 72 hours), K562. Particulars: K562, 72 h, read-out: Cytotoxicity IC50 K-562.
Data set [6] has as its system promyelocytic leukemia HL 60. Put plainly: In vitro cytotoxic activity (Calcein AM, 72 hours), HL 60. The conditions noted are these: Homo sapiens, HL-60, 72 h, read-out: Cytotoxicity IC50 HL60.
Data set [7] has as its system human malignant melanoma G 361. Put plainly: In vitro cytotoxic activity (Calcein AM, 72 hours), G 361. The conditions noted are these: G-361, 72 h, read-out: Cytotoxicity IC50 G361.
The next data set relates to HAd4. Put plainly: HAd4 yield reduction assay (multiple step growth curve) in A549 cells. The conditions noted are these: culture medium; combination: until 72 hours after infection.
In data set [8] the test system is HIV promoter (pHIV-lacZ, extrachromosomal) in H1299-TAT cells. Put plainly: β-galactosidase expression from pHIV-lacZ transiently transfected to H1299-TAT. The conditions noted are these: H1299-TAT cells (FIG. 11).

With `CCC(CO)Nc1nc(NCc2ccccc2N)c2ncn(C(C)C)c2n1` (stereo not shown) [Compound 105, 2-({6-[(2-aminobenzyl)amino]-9-isopropyl-9H-purin-2-yl}amino)butan-1-ol], the “phosphorylation of both serine 2 and serine 5 of RNA polymerase II CTD” value in data set [1] (12 hours treatment, cell lines with incorporated SV40, all tested cell lines (FIG. 12A)) was “inhibited”. Moreover, in data set [1] (COS-1, CV-1 and MCF-7 cells), the “levels of serine 2 and serine 5 phosphorylation of RNA polymerase II CTD” value is reported as “substantially reduced”. Moreover, in data set [1] (MCF7 cells treated for 24 h, immunoblot (FIG. 2)), the “phosphorylation of CTD of RNA polymerase II” value is recorded as “reduced phosphorylation”. In [2], the “phosphorylation of pRb at Ser780, Ser807 and Thr821” value was “Reduced phosphorylation”. The “blue-coloured cells (β-galactosidase activity, X-gal substrate)” value in [3] is recorded as “about 25%”. In addition, the “inhibition of virus replication (in words)” value with VV is “inhibited equally well”. Further, the IC50 at 72 h in [4] is above 167 µM. In addition, the IC50 in the data set with breast carcinoma MCF7 is 3.4 µM; in data set [5] it was 12.8 µM; in data set [6], 6.7 µM; in [7] it was 8 µM. The “appearance of extracellular virus” value in the data set on HAd4 was “considerably delayed”. Moreover, in data set [8], the “expression from pHIV-lacZ (extrachromosomal location), β-galactosidase readout” value is given as “inhibited”.

By IC50 is commonly meant the concentration that gives 50% inhibition.

These data come from US9023857B2, “Substituted 6-(2-aminobenzylamino)purine derivatives, their use as medicaments and preparations containing these compounds” (Univerzita Palackeho V Olomouci, priority 2009, dated 2015).
